# Patent publication EP3964206A1, “COMPOUNDS FOR THE TREATMENT OF COVID-19” (priority 2020, dated 2022)
# Structures can show the parent of a compound that is named as a salt. Peptide text beside a SMILES is read from it. * marks the point of attachment. Cbz = O=C(OCc1ccccc1)*
# Test system: SARS-CoV-2
# Assay: microbe, parasite or virus in culture
# Type: cell-based
# Conditions: Severe acute respiratory syndrome coronavirus 2, 120 h; for Emax: read-out: Maximum confluence reached (%)
SMILES,Emax,IC50
"Nc1nc(NC[C@H]2CC[C@H](CNS(=O)(=O)c3cccc4ccccc34)CC2)nc2ccccc12 [Compound 97, N-[[trans-4-[[(4-Amino-2-quinazolinyl)amino]methyl]cyclohexyl]methyl]-1-naphthalenesulfonamide]",39.2%,
"COc1ccc2c(c1)[C@]1(C[C@H]1c1ccc3c(/C=C/c4ccc(CN5C[C@@H](C)O[C@@H](C)C5)cc4)n[nH]c3c1)C(=O)N2 [Compound 33, (1R,2S)-2-[3-[(E)-2-[4-[(cis-2,6-Dimethylmorpholin-4-yl)methyl]phenyl]vinyl]-1H-indazol-6-yl]-5'-methoxyspiro[cyclopropane-1,3'-indol]-2'(1'H)-one (2E)-but-2-enedioate]",105%,
"CCC(=C(c1ccc(O)cc1)c1ccc(OCCNC)cc1)c1ccccc1 [Compound 91, 4-[1-[4-[2-(Methylamino)ethoxy]phenyl]-2-phenyl-1-butenyl]phenol hydrochloride]",35.7%,6.34 µM
"CCN(CC)CCOc1ccc(C(=C(Cl)c2ccccc2)c2ccccc2)cc1 [Compound 82, 2-[4-(2-Chloro-1,2-diphenylvinyl)phenoxy]-N,N-diethylethanamine citrate]",54.7%,
"NC(=NC1C2CC3CC(C2)CC1C3)Nc1ccc(I)cc1 (stereo not drawn) [Compound 49, 2-(2-adamantyl)-1-(4-iodophenyl)guanidine]",81.8%,
"Cc1ccc(NC(=O)c2ccc(CN3CCN(C)CC3)cc2)cc1Nc1nc(-c2cccnc2)cs1 [Compound 50, 4-[(4-methylpiperazin-1-yl)methyl]-N-[4-methyl-3-[(4-pyridin-3-yl-1,3-thiazol-2-yl)amino]phenyl]benzamide]",57.1%,
"Nc1ncc(-c2ccnc(Nc3ccncc3)n2)c(CC2CC2)n1 [Compound 20, 4'-(Cyclopropylmethyl)-N2-(pyridin-4-yl)-4,5'-bipyrimidine-2,2'-diamine]",98.2%,
"CC(C)N1CCN(c2ccc(C(=O)c3c(-c4ccc(O)cc4)sc4cc(O)ccc34)cc2)CC1 [Compound 87, 1-[6-Hydroxy-2-(4-hydroxyphenyl)-1-benzothien-3-yl]-1-[4-(4-isopropylpiperazin-1-yl)phenyl]methanone]",41%,
"CCCc1c(-c2ccc(O)cc2)nn(-c2ccc(O)cc2)c1-c1ccc(O)cc1 [Compound 88, 1,3,5-Tris(4-hydroxyphenyl)-4-propyl-1H-pyrazole]",48.2%,8.3 µM
"O=C(O)c1ccc(N2C(=O)C(=Cc3ccc(-c4ccc([N+](=O)[O-])cc4)o3)C=C2c2ccccc2)cc1 [Compound 105, 4-[3-[5-(4-Nitrophenyl)furan-2-ylmethylene]-2-oxo-5-phenyl-2,3-dihydro-1H-pyrrol-1-yl]benzoic acid]",52.1%,236 µM
"CC(=O)[C@]1(O)Cc2c(O)c3c(c(O)c2[C@@H](O[C@H]2C[C@H](N)[C@H](O)[C@H](C)O2)C1)C(=O)c1ccccc1C3=O [Compound 38, (7S,9S)-9-Acetyl-7-[(3-amino-2,3,6-trideoxy-alpha-L-lyxo-hexopyranosyl)oxy]-7,8,9,10-tetrahydro-6,9,11-trihydroxy-5,12-naphthacenedione hydrochloride]",92.6%,
"CC(C)c1cnn2c(NCc3ccccc3)cc(NCCCCCCN)nc12 [Compound 48, N5-(6-Aminohexyl)-N7-benzyl-3-isopropylpyrazolo[1,5-a]pyrimidine-5,7-diamine]",47.3%,
"CC1=NN(c2ccc(C)c(C)c2)C(=O)/C1=N\Nc1cccc(-c2cccc(C(=O)O)c2)c1O [Compound 37, 3'-[2(Z)-[1-(3,4-Dimethylphenyl)-3-methyl-5-oxo-4,5-dihydro-1H-pyrazol-4-ylidene]hydrazino]-2'-hydroxybiphenyl-3-carboxylic acid]",63.2%,58.1 µM
"COc1cc2c(NC3CCN(C(C)C)CC3)nc(N3CCC(F)(F)CC3)nc2cc1OCCCN1CCCC1 [Compound 95, 2-(4,4-Difluoropiperidin-1-yl)-6-methoxy-N-[1-(propan-2-yl)piperidin-4-yl]-7-[3-(pyrrolidin-1-yl)propoxy]quinazolin-4-amine]",31.1%,
"C/C(=C\c1ccc(C(=O)O)cc1)c1ccc2c(c1)C(C)(C)CCC2(C)C [Compound 26, 4-[2-(5,5,8,8-Tetramethyl-5,6,7,8-tetrahydronaphthalen-2-yl)-1(E)-propenyl]benzoic acid]",106%,33.7 µM
"CN1[C@@H]2CC[C@H]1C[C@@H](OC(=O)c1cc(Cl)cc(Cl)c1)C2 [Compound 36, 3,5-Dichlorobenzoic acid endo-8-methyl-8-azabicyclo[3.2.1]oct-3-yl ester]",69%,43.9 µM

SMILES,Emax,IC50
"COc1cc(NCc2ccc3nc(N)nc(N)c3c2C)cc(OC)c1OC [Compound 2, 2,4-Diamino-5-methyl-6-[(3,4,5-trimethoxyanilino)methyl]quinazoline]",78.2%,
"COc1ccccc1[C@H](Cn1c(=O)n(C(C)(C)C(=O)O)c(=O)c2c(C)c(-c3ncco3)sc21)OC1CCOCC1 [Compound 61, 2-[1-[(2R)-2-(2-Methoxyphenyl)-2-(tetrahydro-2H-pyran-4-yloxy)ethyl]-5-methyl-6-(1,3-oxazol-2-yl)-2,4-dioxo-1,4-dihydrothieno[2,3-d]pyrimidin-3(2H)-yl]-2-methylpropanoic acid]",78.2%,
"O=C(CCCN1CCC2(CC1)C(=O)N(Cc1cccc(F)c1)CN2c1ccccc1)c1ccc(F)cc1 [Compound 46, 3-[(3-fluorophenyl)methyl]-8-[4-(4-fluorophenyl)-4-oxobutyl]-1-phenyl-1,3,8-triazaspiro[4.5]decan-4-one]",43%,
"CC(C)C[C@H](NC(=O)CNC(=O)c1cc(Cl)ccc1Cl)B(O)O [Compound 108, 1(R)-[2-(2,5-Dichlorobenzamido)acetamido]-3-methylbutylboronic acid]",30.8%,135 µM
"Cc1ccc(C(=O)Nc2cccc(C(F)(F)F)c2)cc1Nc1nc(-c2cccnc2)nc2c1cnn2C [Compound 62, 4-methyl-3-{[1-methyl-6-(3-pyridinyl)-1H-pyrazolo[3,4-d]pyrimidin-4-yl]amino}-N-[3-(trifluoromethyl)phenyl]benzamide]",88.4%,
"COc1cc2c(N3CCN(C(=O)Nc4ccc(OC(C)C)cc4)CC3)ncnc2cc1OCCCN1CCCCC1 [Compound 35, N-(4-Isopropoxyphenyl)-4-[6-methoxy-7-[3-(1-piperidinyl)propoxy]quinazolin-4-yl]piperazine-1-carboxamide]",80.1%,
"Nc1nc(N)c2nc(CNc3ccc(C(=O)N[C@@H](CCC(=O)O)C(=O)O)cc3)cnc2n1 [Compound 10, N-[4-(2,4-diamino-6-pteridinylmethylamino)benzolyl]-L-glutamic acid]",72.5%,
"CC(C)C[C@@H](C=O)NC(=O)[C@H](CC(C)C)NC(=O)[C@H](CC(C)C)NC(=O)OCc1ccccc1 [Compound 52, Benzyloxycarbonyl-L-leucyl-L-leucyl-L-leucinal] (Cbz-Leu-Leu-Leu-aldehyde)",82.8%,
"O=C(C1CC1)N1CC[C@@H](Cc2n[nH]c(=O)n2-c2ccc(-c3ccc4ccoc4c3)cc2)C1 [Compound 67, 4-[4-(1-Benzofuran-6-yl)phenyl]-5-[1-(cyclopropylcarbonyl)pyrrolidin-3(S)-ylmethyl]-3,4-dihydro-2H-1,2,4-triazol-3-one]",31.1%,17 µM
"CN1CCN(CCCN2c3ccccc3Sc3ccc(C(F)(F)F)cc32)CC1 [Compound 94, 10-[3-(4-Methylpiperazin-1-yl)propyl]-2-(trifluoromethyl)-10H-phenothiazine dihydrochloride]",38%,
"OCCNC1CCCc2c1[nH]c1ccc(-c3ccccc3)cc21 (stereo not drawn) [Compound 77, 2-[(6-Phenyl-2,3,4,9-tetrahydro-1H-carbazol-1-yl)amino]ethanol]",50.8%,
"O=C(O)Cc1cccc(OCCCN(Cc2cccc(C(F)(F)F)c2Cl)CC(c2ccccc2)c2ccccc2)c1 [Compound 71, 2-[3-[3-[N-[2-Chloro-3-(trifluoromethyl)benzyl]-N-(2,2-diphenylethyl)amino]propoxy]phenyl]acetic acid]",38%,
"C[C@@H]1COCCN1c1cc(=O)n2c(n1)N(Cc1cncc(Cl)c1)[C@H](C(F)(F)F)CC2 [Compound 54, (8S)-9-[(5-Chloropyridin-3-yl)methyl]-2-[(3R)-3-methylmorpholin-4-yl]-8-(trifluoromethyl)-6,7,8,9-tetrahydro-4H-pyrimido[1,2-a]pyrimidin-4-one]",89%,
"c1cncc(CN2CCC(n3ncc4c(N5CCOCC5)nc(-c5ccc6[nH]ccc6c5)nc43)CC2)c1 [Compound 32, 6-(1H-Indol-5-yl)-4-(4-morpholinyl)-1-[1-(pyridin-3-ylmethyl)piperidin-4-yl]-1H-pyrazolo[3,4-d]pyrimidine]",67.7%,
"Nc1ccc(C(=O)Nc2cccc(-c3nc(N4CCOCC4)c4oc5ncccc5c4n3)c2)cn1 [Compound 104, 6-Amino-N-[3-[4-(4-morpholinyl)pyrido[3',2':4,5]furo[3,2-d]pyrimidin-2-yl]phenyl]pyridine-3-carboxamide]",35.5%,
